Assay [1] has as its target T1, cholesterol esterase (cholesterol ester hydrolase; CEH) (Bos taurus, UniProt P30122).
T1 construct: purchased Sigma C-1892; host or cells: bovine pancreas
T1 sequence (P30122 19-597): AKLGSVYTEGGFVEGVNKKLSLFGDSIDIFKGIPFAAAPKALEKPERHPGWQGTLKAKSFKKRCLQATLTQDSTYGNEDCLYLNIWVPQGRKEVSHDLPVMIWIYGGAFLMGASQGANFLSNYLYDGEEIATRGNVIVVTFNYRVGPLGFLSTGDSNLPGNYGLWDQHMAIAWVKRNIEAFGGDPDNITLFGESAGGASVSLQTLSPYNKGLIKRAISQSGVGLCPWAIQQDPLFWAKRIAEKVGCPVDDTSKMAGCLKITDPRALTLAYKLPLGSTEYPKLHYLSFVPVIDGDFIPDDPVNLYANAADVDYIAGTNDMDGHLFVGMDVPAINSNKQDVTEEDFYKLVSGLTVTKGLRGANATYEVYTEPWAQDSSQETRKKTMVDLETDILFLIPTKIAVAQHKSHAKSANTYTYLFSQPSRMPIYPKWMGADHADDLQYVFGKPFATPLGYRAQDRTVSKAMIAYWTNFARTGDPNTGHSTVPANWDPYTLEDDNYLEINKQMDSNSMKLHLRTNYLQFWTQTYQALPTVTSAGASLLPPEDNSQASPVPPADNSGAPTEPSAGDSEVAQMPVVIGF
Put plainly: Inhibition of cholesteryl ester formation by cholesterol esterase (CEH), in vitro. The format is biochemical, bovine. The protocol: The ability of the compounds of this invention to inhibit the formation of cholesteryl esters and thereby interfere with and prevent assimilation of cholesterol into the lymphatic system and ultimately the blood stream was established by incubating the compounds at 37° C. with a mixture of cholesterol and oleic acid in the presence of buffered cholesterol esterase [([…]) Sigma No. C-1892, from bovine pancreas] and measuring the amount of ester formed, according to the procedure of Field, J. of Lipid Research, 25 389 (1984).

The subject of assay [2] is Absorption of ^14 C-Chol. Put plainly: In vivo cholesterol absorption study in normal rats, serum radioactivity after oral [4-^14 C] cholesterol. As to conditions: suspended in olive oil, normal rat, 6 hr. Here is the method:
The in vivo cholesterol absorption studies were conducted in normal rats by oral administration of the compound being tested suspended in olive oil followed by oral administration of [4-^14 C] cholesterol in propylene glycol, otherwise following the procedure of Cayen et al., J. Lipid Res. 20 162 (1979). The serum radioactivity was measured at six hours after dosing. The results of this study are reported in the following Table, where available, as percent decrease compared to control.

The mark [3] stands for this setting: 37° C., cholesterol and oleic acid, buffered cholesterol esterase from bovine pancreas, read-out: IC50 Against CEH (concentration that inhibits one-half of the ester formation).

Like-named read-outs stand apart in the source and are kept apart here.

`O=C(Oc1ccccc1-c1ccccc1)N1CCOCC1` [Example 10, 4-Morpholinecarboxylic acid[1.1'-biphenyl]-2-yl ester] displayed an IC50 in assay [1] of 26 µM. With `CC1CCN(C(=O)Oc2ccccc2-c2ccccc2)CC1` [Example 8, 4-Methyl-1-piperidinecarboxylic acid[1,1'-biphenyl]-2-yl ester], the IC50 in assay [1] (setting [3]) stood at 0.8 µM. Consider `O=C(Oc1ccccc1-c1ccccc1)N1CCCCC1` [Example 7, 1-Piperidinecarboxylic acid[1,1'-biphenyl]-2-yl ester], for which the IC50 in assay [1] (setting [3]) was 0.08 µM. In addition, the “Effects on Absorption of ^14 C-Chol., percent decrease compared to control” value (shortened to “Effects … percent decrease compared to control”) in assay [2] (250 mg/kg) amounted to 19%.

The molecule `O=C(NCC1CCCCC1)Oc1ccccc1-c1ccccc1` [Example 4, (Cyclohexylmethyl)carbamic acid[1,1'-biphenyl]-2-yl ester] displayed an IC50 in assay [1] of 3 µM. Moreover, the “Effects … percent decrease compared to control” value in assay [2] (100 mg/kg) came to 21%. Take `CCCCCCCN(Cc1ccc(CC(C)(C)C)cc1)C(=O)Oc1ccccc1-c1ccccc1` [Example 2, [[4-(2,2-Dimethylpropyl)phenyl]methyl]heptylcarbamic acid[1,1'-biphenyl]-2-yl ester]: the IC50 in assay [1] was 100 µM. In the case of `O=C(Oc1ccccc1-c1ccccc1)N1CCC(c2ccccc2)CC1` [Example 9, 4-Phenyl-1-piperidinecarboxylic acid[1.1'-biphenyl]-2-yl ester], the IC50 in assay [1] (setting [3]) worked out at 1.9 µM. Further, in assay [2] (100 mg/kg), the “Effects … percent decrease compared to control” value turned out to be 11%. For the molecule `O=C(Oc1ccccc1-c1ccccc1)N1CCN(c2ccccc2)CC1` [Example 13, 4-Phenyl-1-piperazinecarboxylic acid[1,1'-biphenyl]-2-yl ester], in assay [1] (setting [3]), the IC50 was 53 µM.

In assay [1], `CN1CCN(C(=O)Oc2ccccc2-c2ccccc2)CC1` [Example 12, 4-Methyl-1-piperazinecarboxylic acid[1,1'-biphenyl]-2-yl ester] returned an IC50 of 25 µM. With `O=C(NC1CCCCC1)Oc1ccccc1-c1ccccc1` [Example 3, Cyclohexylcarbamic acid[1,1'-biphenyl]-2-yl ester], in assay [1], the IC50 came out at 5 µM. The “Effects … percent decrease compared to control” value in assay [2] (100 mg/kg) amounted to 21%. Regarding `O=C(Oc1ccccc1-c1ccccc1)N1CCSCC1` [Example 11, 4-Thiomorpholinecarboxylic acid[1.1'-biphenyl]-2-yl ester], the IC50 in assay [1] (setting [3]) came to 1.2 µM. Further, the “Effects … percent decrease compared to control” value in assay [2] (100 mg/kg) turned out to be 21%. On to `CC1(C)CCCN(C(=O)Oc2ccccc2-c2ccccc2)C1` [Example 6, 3,3-Dimethyl-1-piperidinecarboxylic acid[1,1'-biphenyl]-2-yl ester], for which the IC50 in assay [1] (setting [3]) amounted to 38 µM.

As for `CCCCCCCCNC(=O)Oc1ccccc1-c1ccccc1` [Example 1, Octylcarbamic acid[1.1'-biphenyl]-2-yl ester], the IC50 in assay [1] worked out at 1.5 µM. Take `O=C(NCCCCc1ccccc1)Oc1ccccc1-c1ccccc1` [Example 5, (4-Phenylbutyl)carbamic acid[1,1'-biphenyl]-2-yl ester]: in assay [1], the IC50 was found to be 0.25 µM. The “Effects … percent decrease compared to control” value in assay [2] (250 mg/kg) worked out at 46%.

For the origin of these results see patent publication US5190940A, “Cholesterol ester hydrolase inhibitors” (American Home Products Corporation, priority 1991, dated 1993).
